In patent US10513519B2, “Solid forms of (1S,4S)-4-(2-(((3S,4R)-3-fluorotetrahydro-2H-pyran-4-yl)amino)-8-((2,4,6-trichlorophenyl)amino)-9H-purin-9-yl)-1-methylcyclohexane-1-carboxamide and methods of their use” (Signal Pharmaceuticals, LLC, priority 2016, dated 2019):

Test system: cancer cell lines
Test: Multiplexed cytotoxicity assay: cell proliferation (relative cell count IC50, GI50)
Type: cell-based
Conditions: Homo sapiens
Description: (§1) Cells are grown in RPMI1640, 10% FBS, 2 mM L-alanyl-L-Glutamine, 1 mM Na pyruvate or a special medium in a humidified atmosphere of 5% CO2 at 37° C. Cells are seeded into 384-well plates and incubated in a humidified atmosphere of 5% CO2 at 37° C. Compounds are added 24 h post cell seeding. At the same time, a time zero untreated cell plate is generated. After a 72 hour incubation period, cells are fixed and stained with fluorescently labeled antibodies and nuclear dye to allow visualization of nuclei, apoptotic cells and mitotic cells. Apoptotic cells are detected using an anti-active caspase-3 antibody. Mitotic cells are detected using an anti phospho-histone-3 antibody. Compounds are serially diluted 3.16-fold and assayed over 10 concentrations in a final assay concentration of 0.1% DMSO from the highest test concentration of 10 μM. Automated fluorescence microscopy was carried out using a Molecular Devices ImageXpress Micro XL high-content imager, and images are collected with a 4× objective.
Sixteen-bit TIFF images are acquired and analyzed with MetaXpress 5.1.0.41 software. Cell proliferation is measured by the signal intensity of the incorporated nuclear dye. The cell proliferation assay output is referred to as the relative cell count. To determine the cell proliferation end point, the cell proliferation data output is transformed to percentage of control (POC) using the following formula: POC=relative cell count(compound wells)/relative cell count(vehicle wells)×100
GI50 is the concentration needed to reduce the observed growth by half. This is the concentration that inhibits the growth to the level midway between growth in untreated cells and the number of cells seeded in the well (Time zero value). The IC50 values are calculated using nonlinear regression to fit data to a sigmoidal 4 point, 4 parameter One-Site dose response model, where: y(fit)=A+[(B−A)/(1+((C/x)^D))].
as §1, with “In another experiment, cells were grown” for “Cells are grown”, “Cells were” for “Cells are”, “Compounds were” for “Compounds are”, “plate was” for “plate is”, “cells were” for “cells are”, “images were” for “images are”
Sixteen-bit TIFF images were acquired and analyzed with MetaXpress 5.1.0.41 software. Cell proliferation was measured by the signal intensity of the incorporated nuclear dye. The cell proliferation assay output was referred to as the relative cell count. To determine the cell proliferation end point, the cell proliferation data output was transformed to percentage of control (POC) using the following formula: POC=relative cell count(compound wells)/relative cell count(vehicle wells)×100
GI50 refers to the concentration needed to reduce the observed growth by half. This corresponds to the concentration that inhibits the growth to the level midway between growth in untreated cells and the number of cells seeded in the well (Time zero value). The IC50 values were calculated using nonlinear regression to fit data to a sigmoidal 4 point, 4 parameter One-Site dose response model, where: y(fit)=A+[(B−A)/(1+((C/x)^D))].

[1] = BV-173, BV173 (Hematopoietic and lymphoid, Leukemia)
[2] = BXPC-3, 72 h, BXPC3, Pancreas, 72 h
[3] = BeWo, 72 h, Female GU, Placenta
[4] = C-4-II, C4II (Female GU, Cervix)
[5] = C-33-A, C33A (Female GU, Cervix)
[6] = CA46, CA46 (Hematopoietic and lymphoid, Lymphoma)
[7] = CAL-62, 72 h, CAL62, Endocrine, Thyroid, 72 h
[8] = CAPAN-1, 72 h, CAPAN1, Pancreas, 72 h
[9] = CCF-STTG1, CCFSTTG1 (CNS, Glioma)
[10] = CCRF-CEM, CCRFCEM (Hematopoietic and lymphoid, Leukemia)
[11] = CFPAC-1, 72 h, CFPAC1, Pancreas, 72 h
[12] = CGTH-W-1, 72 h, CGTHW1, Endocrine, Thyroid, 72 h
[13] = CHP-212, 72 h, CHP212, CNS, Neuroblastoma, 72 h
[14] = COLO-320-HSR, COLO320HSR (Colon)
[15] = COLO-829, COLO829 (Skin, Melanoma)
[16] = COR-L23, 72 h, CORL23, Lung, NSCLC, 72 h
[17] = COR-L105, 72 h, CORL105, Lung, NSCLC, 72 h
[18] = CRO-AP2, CROAP2 (Hematopoietic and lymphoid, Lymphoma)
[19] = Ca-Ski, 72 h, CASKI, Female GU, Ovary
[20] = Calu-1, 72 h, CALU1, Lung, NSCLC, 72 h
[21] = Calu-6, 72 h, CALU6, Lung, NSCLC, 72 h
[22] = Caov-3, 72 h, CAOV3, Female GU, Ovary, 72 h
[23] = Capan-2, 72 h, CAPAN2, Pancreas, 72 h
[24] = ChaGo-K-1, 72 h, CHAGOK1, Lung, NSCLC, 72 h
[25] = D283 Med, D283MED (CNS, Medulloblastoma)
[26] = DBTRG-05MG, DBTRG05MG (CNS, Glioma)
[27] = DMS-53, 72 h, DMS53, Lung, SCLC, 72 h
[28] = DMS-114, 72 h, DMS114, Lung, SCLC, 72 h
[29] = DMS-273, 72 h, DMS273, Lung, SCLC, 72 h
[30] = DOHH-2, DOHH2 (Hematopoietic and lymphoid, Lymphoma)
[31] = DU-145, 72 h, DU145, Prostate, 72 h
[32] = Daoy, DAOY (CNS, Medulloblastoma)
[33] = Daudi, DAUDI (Hematopoietic and lymphoid, Lymphoma)
[34] = Detroit 562, DETROIT562 (Head and Neck)
[35] = DoTc2-4510, DOTC24510 (Female GU, Cervix)
[36] = GA-10, GA10 (Hematopoietic and lymphoid, Lymphoma)
[37] = HEC-1-A, 72 h, HEC1A, Female GU, Uterus
[38] = HEL 92.1.7, HEL9217 (Hematopoietic and lymphoid, Leukemia)
[39] = HPAF-II, 72 h, HPAFII, Pancreas
[40] = HT-1080, 72 h, HT1080, Soft Tissue, Sarcoma, 72 h
[41] = Hs 294T, HS294T (Skin, Melanoma)
[42] = Hs 695T, HS695T (Skin, Melanoma)
[43] = HuP-T4, 72 h, HUPT4, Pancreas, 72 h
[44] = J-RT3-T3-5, JRT3T35 (Hematopoietic and lymphoid, Leukemia)
[45] = JEG-3, 72 h, JEG3, Female GU, Placenta, 72 h

## C[C@]1(C(N)=O)CC[C@@H](n2c(Nc3c(Cl)cc(Cl)cc3Cl)nc3cnc(N[C@@H]4CCOC[C@H]4F)nc32)CC1 [Compound 1, cis-4-[2-{[(3S,4R)-3-fluorooxan-4-yl]amino}-8-(2,4,6-trichloroanilino)-9H-purin-9-yl]-1-methylcyclohexane-1-carboxamide]
BT-474, BT474 (Breast)
  GI50: > 10000 nM
  IC50: > 10000 nM
BT-549, BT549 (Breast)
  GI50: > 10000 nM
  IC50: > 10000 nM
[1]
  GI50: 1100 nM
  IC50: > 10000 nM
[2]
  GI50: 36.9 nM
  IC50: 45.5 nM
[3]
  GI50: 5160 nM
  IC50: 5690 nM
[4]
  GI50: > 10000 nM
  IC50: > 10000 nM
[5]
  GI50: 191 nM
  IC50: 407 nM
[6]
  GI50: 14.6 nM
  IC50: 21.3 nM
CAKI-1, CAKI1 (Kidney)
  GI50: 91.4 nM
  IC50: 151 nM
CAKI-2, CAKI2 (Kidney)
  GI50: 139 nM
  IC50: 193 nM
CAL-27, CAL27 (Head and Neck)
  GI50: 59.2 nM
  IC50: 66.1 nM
[7]
  GI50: 83.6 nM
  IC50: 93.6 nM
CAMA-1, CAMA1 (Breast)
  GI50: 298 nM
  IC50: 2240 nM
[8]
  GI50: 105 nM
  IC50: > 10000 nM
[9]
  GI50: > 10000 nM
  IC50: > 10000 nM
[10]
  GI50: 5030 nM
  IC50: 6050 nM
[11]
  GI50: > 10000 nM
  IC50: > 10000 nM
[12]
  GI50: 54.7 nM
  IC50: 60.5 nM
CHL-1, CHL1 (Skin, Melanoma)
  GI50: 103 nM
  IC50: 117 nM
[13]
  GI50: 6.6 nM
  IC50: 16.5 nM
COLO 201, COLO201 (Colon)
  GI50: 12.8 nM
  IC50: 17.2 nM
COLO 205, COLO205 (Colon)
  GI50: 9.5 nM
  IC50: 11.7 nM
COLO 320DM, COLO320DM (Colon)
  GI50: 9110 nM
  IC50: > 10000 nM
[14]
  GI50: 4190 nM
  IC50: 4440 nM
[15]
  GI50: 12.1 nM
  IC50: 34.3 nM
[16]
  GI50: 23.8 nM
  IC50: 28.3 nM
[17]
  GI50: 16.5 nM
  IC50: 41.4 nM
[18]
  GI50: 996 nM
  IC50: 2580 nM
[19]
  GI50: 6760 nM
  IC50: > 10000 nM
[20]
  GI50: 96.7 nM
  IC50: 149 nM
[21]
  GI50: 46.3 nM
  IC50: 83 nM
[22]
  GI50: 429 nM
  IC50: > 10000 nM
[23]
  GI50: 136 nM
  IC50: 291 nM
[24]
  GI50: > 10000 nM
  IC50: > 10000 nM
[25]
  GI50: 2560 nM
  IC50: 7550 nM
[26]
  GI50: 43.2 nM
  IC50: 98.4 nM
DLD-1, DLD1 (Colon)
  GI50: 162 nM
  IC50: 197 nM
[27]
  GI50: 998 nM
  IC50: > 10000 nM
[28]
  GI50: 68.8 nM
  IC50: 600 nM
[29]
  GI50: 5960 nM
  IC50: 6790 nM
[30]
  GI50: 5540 nM
  IC50: 5790 nM
[31]
  GI50: 73.8 nM
  IC50: 96.5 nM
[32]
  GI50: 749 nM
  IC50: 1090 nM
[33]
  GI50: 17.7 nM
  IC50: > 10000 nM
[34]
  GI50: 347 nM
  IC50: > 10000 nM
[35]
  GI50: 40 nM
  IC50: 132 nM
EFM-19, EFM19 (Breast)
  GI50: 4200 nM
  IC50: > 10000 nM
FaDu, FADU (Head and Neck)
  GI50: 435 nM
  IC50: 787 nM
G-361, G361 (Skin, Melanoma)
  GI50: 102 nM
  IC50: 150 nM
G-401, G401 (Kidney)
  GI50: 77.4 nM
  IC50: 86 nM
G-402, G402 (Kidney)
  GI50: 50.4 nM
  IC50: 92.5 nM
[36]
  GI50: 46.8 nM
  IC50: 56.7 nM
HCT-15, HCT15 (Colon)
  GI50: 1970 nM
  IC50: 2230 nM
HCT-116, HCT116 (Colon)
  GI50: 19.4 nM
  IC50: 20.4 nM
[37]
  GI50: 1800 nM
  IC50: 2810 nM
[38]
  GI50: 4620 nM
  IC50: 8230 nM
HMCB, HMCB (Skin, Melanoma)
  GI50: 72.4 nM
  IC50: 113 nM
[39]
  GI50: 13 nM
  IC50: 17.5 nM
HRT-18, HRT18 (Colon)
  GI50: 77.5 nM
  IC50: 81.9 nM
HT1197, HT1197 (Bladder)
  GI50: 444 nM
  IC50: > 10000 nM
HT-29, HT29 (Colon)
  GI50: 12.9 nM
  IC50: 16.7 nM
[40]
  GI50: 64.8 nM
  IC50: 72.7 nM
HT-1376, HT1376 (Bladder)
  GI50: 792 nM
  IC50: 3480 nM
HeLa, HELA (Female GU, Cervix)
  GI50: 6750 nM
  IC50: 8710 nM
HepG2, HEPG2 (Liver)
  GI50: 22.4 nM
  IC50: 64.3 nM
[41]
  GI50: 50.7 nM
  IC50: 70.6 nM
Hs 683, HS683 (CNS, Glioma)
  GI50: 148 nM
  IC50: 305 nM
[42]
  GI50: 36.3 nM
  IC50: 160 nM
Hs746T, 72 h, Stomach
  GI50: 39.6 nM
  IC50: 122 nM
Hs-578T, HS578T (Breast)
  GI50: 153 nM
  IC50: 837 nM
HuCCT-1, HUCCT1 (Liver)
  GI50: 53.7 nM
  IC50: 63.3 nM
[43]
  GI50: 43.4 nM
  IC50: 50.5 nM
HuTu80, HUTU80 (Duodenum)
  GI50: 57 nM
  IC50: 69.5 nM
[44]
  GI50: 3580 nM
  IC50: 4780 nM
[45]
  GI50: 6340 nM
  IC50: 7750 nM
